Measurements reported in patent US6723364B1, “Fog treatment method using a liquid composition for treating fruits and vegetables and implementing device” (Xeda International, priority 1998, dated 2004).
In brackets after ≈: the same amount, converted by molar mass.

Legend:
Assay type in all cases: cell-based
[1] = test system: Alternaria alternata; test: Fungicidal activity in vitro: mycelial growth on Cristomalt agar; settings: AA; for Inhibition grades: MIC expressed on the scale of Table 2; for MIC: Alternaria alternata, min-max range of several experiments, 22° C., read-out: MIC (content giving complete inhibition of mycelial growth)
Method: (§1) The Cristomalt medium used for the evaluations of the fungicidal activities comprises 0.1% of Cristomalt (malt extract) and 0.2% of agar.
(§2) This culture medium is, after sterilization, brought to 55° C. The terpene compound tested is then introduced in the pure form into the culture medium under warm conditions. Immediately after agitating, the medium, enriched with the terpene product, is poured into Petri dishes (diameter 9 cm, filled with 20 ml of medium). The agar-comprising medium solidifies on cooling. The Petri dishes are then inoculated with plugs, with a diameter of 6 mm, withdrawn from the edge of a culture of the tested fungus, which culture is obtained on Cristomalt medium.
(§3) Inoculation is carried out at 22° C.
(§4) The mycelial growth was determined periodically (5 to 15 days, according to the species of fungus).
(§5) The results are expressed in Table 3 below in terms of MIC, which is the content (in μg/ml) which makes it possible to obtain complete inhibition of mycelial growth.
(§6) In f act, each experiment was carried out several times, so that, for each terpene and for each species of fungus, a minimum value and a maximum value were obtained.

[2] = test system: Botrytis cinerea; test: as above; settings: BC; for Inhibition grades: MIC expressed on the scale of Table 2; for MIC: Botrytis cinerea, min-max range of several experiments, 22° C., read-out: MIC (content giving complete inhibition of mycelial growth)
Method: as §1, §2, §3, §4, §5, §6

[3] = test system: Fusarium oxysporum; test: as above; settings: for MIC: Fusarium oxysporum, FO, min-max range of several experiments, 22° C., read-out: MIC (content giving complete inhibition of mycelial growth); for Inhibition grades: OF, MIC expressed on the scale of Table 2
Method: as §1, §2, §3, §4, §5, §6

[4] = test system: Geocrichum candidum; test: as above; settings: GC; for Inhibition grades: MIC expressed on the scale of Table 2; for MIC: min-max range of several experiments, 22° C., read-out: MIC (content giving complete inhibition of mycelial growth)
Method: as §1, §2, §3, §4, §5, §6

[5] = test system: Gliocladium roseum; test: as above; settings: GR; for MIC: Clonostachys rosea, min-max range of several experiments, 22° C., read-out: MIC (content giving complete inhibition of mycelial growth); for Inhibition grades: MIC expressed on the scale of Table 2
Method: as §1, §2, §3, §4, §5, §6

[6] = test system: Penicillium digitatum; test: as above; settings: PD; for Inhibition grades: MIC expressed on the scale of Table 2; for MIC: Penicillium digitatum, min-max range of several experiments, 22° C., read-out: MIC (content giving complete inhibition of mycelial growth)
Method: as §1, §2, §3, §4, §5, §6

[7] = test system: Penicillium expansum; test: as above; settings: PE; for Inhibition grades: MIC expressed on the scale of Table 2; for MIC: Penicillium expansum, min-max range of several experiments, 22° C., read-out: MIC (content giving complete inhibition of mycelial growth)
Method: as §1, §2, §3, §4, §5, §6

[8] = test system: Phlyctaena vagabonda (“Gloeosporium”); test: as above; settings: PV; for Inhibition grades: MIC expressed on the scale of Table 2; for MIC: min-max range of several experiments, 22° C., read-out: MIC (content giving complete inhibition of mycelial growth)
Method: as §1, §2, §3, §4, §5, §6

[9] = test system: Phytophtora parasitica; test: as above; settings: PhP; for Inhibition grades: MIC expressed on the scale of Table 2; for MIC: min-max range of several experiments, 22° C., read-out: MIC (content giving complete inhibition of mycelial growth)
Method: as §1, §2, §3, §4, §5, §6

[10] = test system: species of fungus (AA, BC, FO, GC, GR, PD, PE, PV, PhP); test: Fungicidal activity in vitro: total of inhibition grades over the nine species of fungus; settings: sum of the grades over the nine fungi
Method: as §1, §2, §3, §4
The results obtained are analysed simply by using the assessment scale illustrated in Table 2:
The results obtained have been expressed in Table 3 using the scale in Table 2.

[11] = test system: Alternaria alternata; test: Germination of the spores in vitro; settings: AA;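 further: ++ germination like control and 0 no spores germinated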
Method: (§7) The activity of eugenol and of isoeugenol on the germination of the spores was evaluated in vitro and compared with that of other terpenes.
(§8) The procedure of Example 4 is used to do this, except that the concentration of eugenol and of isoeugenol was set at x μg/ml in the culture media used and that 50 μl of a suspension of spores, adjusted to 100,000 spores/ml, are deposited in each Petri dish.
(§9) The same experiment was carried out starting with a terpene-free culture medium (control test).
(§10) The results were evaluated using the following assessment criteria:
(§11) +: considerable reduction in the level of spores germinated
(§12) The results obtained for 3 different concentrations of terpenes in the culture medium, namely 40 μg/ml, 80 μg/ml and 1280 μg/ml, are listed in Tables 4, 5 and 6.

[12] = test system: Botrytis cinerea; test: Germination of the spores in vitro; settings: BC
Method: as §7, §8, §9, §10, §11, §12

[13] = test system: Fusarium oxysporum; test: Germination of the spores in vitro; settings: FO;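 further: ++ germination like control and 0 no spores germinated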
Method: as §7, §8, §9, §10, §11, §12

[14] = test system: Penicillium digitatum; test: Germination of the spores in vitro; settings: PD
Method: as §7, §8, §9, §10, §11, §12

[15] = test system: Penicillium expansum; test: Germination of the spores in vitro; settings: PE;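 further: ++ germination like control and 0 no spores germinated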
Method: as §7, §8, §9, §10, §11, §12

[16] = test system: Phlyctaena vagabonda (“Gloeosporium”); test: Germination of the spores in vitro; settings: PV;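 further: ++ germination like control and 0 no spores germinated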
Method: as §7, §8, §9, §10, §11, §12

[17] = test system: Phytophtora parasitica; test: Germination of the spores in vitro; settings: PhP
Method: as §7, §8, §9, §10, §11, §12

[18] = test system: Erwinia carotovora; test: Bactericidal activity in vitro in LB agar medium; settings: 28° C.; for MIC: Pectobacterium carotovorum, Erwinia sp., read-out: MIC (concentration needed to completely inhibit the growth of the bacteria)
Method: The bactericidal activity of eugenol and isoeugenol was evaluated in vitro and compared with that of other terpenes.
The culture medium used is the following LB medium:
Bactotryptone: 1% by weight
Yeast extract: 0.5% by weight
A suspension of bacteria at 10^6 CFU/ml was prepared in sterilized water from the LB medium. 200 μl of this bacterial suspension were added to 20 ml of presterilized LB culture medium brought to 55° C. The tested terpene is then added to the culture medium. After agitation, the medium is immediately divided among Petri dishes. The medium solidifies on cooling.
Incubation is carried out at 28° C. when the bacterium is Erwinia carotovora and at 37° C. when the bacterium is Escherichia coli.
The growth of mould in the culture medium is observed. The same experiment is carried out in the absence of terpene (control experiment).
The results are evaluated using the following assessment scale:
++: mould growth identical to the control
+: mould present with a marked reduction in growth with respect to the control
: complete absence of growth.
The results obtained for 3 different concentrations, namely 20, 80 and 320 μg/ml, in the case of the bacterium Erwinia carotovora are summarized in Table 7.
The protocol used is that described above.

CC12CCC(CC1)C(C)(C)O2 [EUCALYPTOL, eucalyptol]
Inhibition grades [1]: 1 (>1280) | MIC [1]: > 1280 µg/mL | Inhibition grades [2]: 2 (640-1280) | MIC [2]: 640 to 1280 µg/mL (≈ 4150 to 8300 µM) | MIC [3]: 640 to 1280 µg/mL (≈ 4150 to 8300 µM) | Inhibition grades [3]: 2 (640-1280) | Inhibition grades [4]: 3 (320-640) | MIC [4]: 320 to 640 µg/mL (≈ 2070 to 4150 µM) | MIC [5]: 320 to 640 µg/mL (≈ 2070 to 4150 µM) | Inhibition grades [5]: 3 (320-640) | Inhibition grades [6]: 1 (>1280) | MIC [6]: > 1280 µg/mL | Inhibition grades [7]: 1 (>1280) | MIC [7]: > 1280 µg/mL | Inhibition grades [8]: 4 (160-320) | MIC [8]: 160 to 320 µg/mL (≈ 1040 to 2070 µM) | Inhibition grades [9]: 3 (320-640) | MIC [9]: 320 to 640 µg/mL (≈ 2070 to 4150 µM) | Total of the degrees of inhibition [10]: 20 | germination of the spores ([11]; x = 40 μg/ml): ++ | germination of the spores ([11]; x = 80 μg/ml): ++ | germination of the spores ([11]; x = 1280 μg/ml): 0 | germination of the spores ([12]; x = 40 μg/ml): ++ | germination of the spores ([12]; x = 80 μg/ml): ++ | germination of the spores ([12]; x = 1280 μg/ml): 0 | germination of the spores ([13]; x = 40 μg/ml): ++ | germination of the spores ([13]; x = 80 μg/ml): ++ | germination of the spores ([13]; x = 1280 μg/ml): 0 | germination of the spores ([14]; x = 40 μg/ml): + | germination of the spores ([14]; x = 80 μg/ml): + | germination of the spores ([14]; x = 1280 μg/ml): + | germination of the spores ([15]; x = 40 μg/ml): + | germination of the spores ([15]; x = 80 μg/ml): + | germination of the spores ([15]; x = 1280 μg/ml): + | germination of the spores ([16]; x = 40 μg/ml): ++ | germination of the spores ([16]; x = 80 μg/ml): + | germination of the spores ([16]; x = 1280 μg/ml): 0 | germination of the spores ([17]; x = 40 μg/ml): ++ | germination of the spores ([17]; x = 80 μg/ml): + | germination of the spores ([17]; x = 1280 μg/ml): 0 | growth in the culture medium with respect to the control ([18]; Concentration 20 μg/ml): ++ | growth in the culture medium with respect to the control ([18]; Concentration 80 μg/ml): ++ | growth in the culture medium with respect to the control ([18]; Concentration 320 μg/ml): ++ | MIC [18]: 320 to 640 µg/mL (≈ 2070 to 4150 µM)

C=CCc1ccc(O)c(OC)c1 [EUGENOL, eugenol]
Inhibition grades [1]: 7 (20-40) | MIC [1]: 20 to 40 µg/mL (≈ 122 to 244 µM) | Inhibition grades [2]: 7 (20-40) | MIC [2]: 20 to 40 µg/mL (≈ 122 to 244 µM) | MIC [3]: 20 to 40 µg/mL (≈ 122 to 244 µM) | Inhibition grades [3]: 7 (20-40) | Inhibition grades [4]: 8 (10-20) | MIC [4]: 10 to 20 µg/mL (≈ 60.9 to 122 µM) | MIC [5]: 20 to 40 µg/mL (≈ 122 to 244 µM) | Inhibition grades [5]: 7 (20-40) | Inhibition grades [6]: 7 (20-40) | MIC [6]: 20 to 40 µg/mL (≈ 122 to 244 µM) | Inhibition grades [7]: 7 (20-40) | MIC [7]: 20 to 40 µg/mL (≈ 122 to 244 µM) | Inhibition grades [8]: 6 (40-80) | MIC [8]: 40 to 80 µg/mL (≈ 244 to 487 µM) | Inhibition grades [9]: 7 (20-40) | MIC [9]: 20 to 40 µg/mL (≈ 122 to 244 µM) | Total of the degrees of inhibition [10]: 63 | germination of the spores ([11]; x = 40 μg/ml): 0 | germination of the spores ([11]; x = 80 μg/ml): 0 | germination of the spores ([11]; x = 1280 μg/ml): 0 | germination of the spores ([12]; x = 40 μg/ml): 0 | germination of the spores ([12]; x = 80 μg/ml): 0 | germination of the spores ([12]; x = 1280 μg/ml): 0 | germination of the spores ([13]; x = 40 μg/ml): 0 | germination of the spores ([13]; x = 80 μg/ml): 0 | germination of the spores ([13]; x = 1280 μg/ml): 0 | germination of the spores ([14]; x = 40 μg/ml): 0 | germination of the spores ([14]; x = 80 μg/ml): 0 | germination of the spores ([14]; x = 1280 μg/ml): 0 | germination of the spores ([15]; x = 40 μg/ml): 0 | germination of the spores ([15]; x = 80 μg/ml): 0 | germination of the spores ([15]; x = 1280 μg/ml): 0 | germination of the spores ([16]; x = 40 μg/ml): 0 | germination of the spores ([16]; x = 80 μg/ml): 0 | germination of the spores ([16]; x = 1280 μg/ml): 0 | germination of the spores ([17]; x = 40 μg/ml): 0 | germination of the spores ([17]; x = 80 μg/ml): 0 | germination of the spores ([17]; x = 1280 μg/ml): 0 | growth in the culture medium with respect to the control ([18]; Concentration 20 μg/ml): + | growth in the culture medium with respect to the control ([18]; Concentration 80 μg/ml): − | growth in the culture medium with respect to the control ([18]; Concentration 320 μg/ml): − | MIC [18]: 20 to 40 µg/mL (≈ 122 to 244 µM)
